Data as given in patent US5767141A, “Substituted propane derivatives, a process for their preparation and the use of the compounds for treating diseases” (Hoechst Aktiengesellschaft, priority 1994, dated 1998).

Key:
glucose-6-phosphatase = conditions: qualitative, literature; cited from earlier work
[1] = target: T1, glucose-6-phosphatase system (Rattus norvegicus, UniProt F7EWB7); test: inhibition of the glucose-6-phosphatase system, enzyme assay in liver microsomes (phosphate liberated from glucose 6-phosphate); type: biochemical, male Wistar rats
T1 construct: To prepare the microsome fraction containing the glucose-6-phosphatase, fresh liver organs from male Wistar rats were used; from tissue; host or cells: liver microsome fraction of male Wistar rats
T1 sequence (F7EWB7 1-429): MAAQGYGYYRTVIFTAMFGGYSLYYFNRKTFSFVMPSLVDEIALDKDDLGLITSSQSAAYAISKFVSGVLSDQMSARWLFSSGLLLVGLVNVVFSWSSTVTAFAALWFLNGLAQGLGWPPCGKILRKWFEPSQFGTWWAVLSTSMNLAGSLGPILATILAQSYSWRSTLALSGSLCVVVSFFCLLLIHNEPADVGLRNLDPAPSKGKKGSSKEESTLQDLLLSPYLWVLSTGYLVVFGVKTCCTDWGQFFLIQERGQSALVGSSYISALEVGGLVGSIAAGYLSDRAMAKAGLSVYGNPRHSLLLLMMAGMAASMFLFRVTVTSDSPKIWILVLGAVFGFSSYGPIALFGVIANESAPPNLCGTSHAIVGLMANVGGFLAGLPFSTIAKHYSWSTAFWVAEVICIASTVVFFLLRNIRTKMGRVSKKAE
Protocol: The effect of the compounds according to the invention on the glucose-6-phosphatase system was investigated in an enzyme assay in liver microsomes.
To prepare the microsome fraction containing the glucose-6-phosphatase, fresh liver organs from male Wistar rats were used and were processed as described in the literature [Canfield, W. K. and Arion, W. J., J. Biol. Chem. 263, 7458-7460, (1988)]. This microsome fraction can be stored at -70° C. for at least 2 months without significant loss of activity.
The glucose-6-phosphatase activity was detected as indicated in the literature (Arion, W. J. in Methods Enzymol. 174, Academic Press 1989, pages 58-67) by determination of the phosphate liberated from glucose 6-phosphate. 0.1 ml of assay mixture contained glucose 6-phosphate (1 mmol/l), the test substance, 0.1 mg of microsome fraction and 100 mmol/l HEPES buffer (4-(2-hydroxyethyl)piperazine-1-ethanesulfonic acid), pH 7.0. The reaction was started by adding the enzyme. After 20 minutes at room temperature, the reaction was stopped by adding 0.2 ml of phosphate reagent. The sample was incubated at 37° C. for 30 min, and the absorption (A) of the blue color was subsequently measured at 570 nm. The inhibitory activity of the test substance emerged from comparison with a control reaction which contained no test substance according to the formula [formula] […]

| IC50 ([1]; rat liver microsome fraction, glucose 6-phosphate 1 mmol/l, pH 7.0, 20 minutes at room temperature, read-out: IC50 (concentration for 50% inhibition of enzyme activity)) [µM] | SMILES | inhibition of glucose-6-phosphatase (in words) (glucose-6-phosphatase) | inhibition of the glucose-6-phosphatase system (in words) ([1]; qualitative statement) |
| --- | --- | --- | --- |
|  | O=C(CCc1ccc(O)cc1)c1c(O)cc(O)cc1O[C@@H]1O[C@H](CO)[C@@H](O)[C@H](O)[C@H]1O [phlorrhizin] | non-specific inhibitors of glucose-6-phosphatase |  |
| 4 | CC(C)(COC(=O)/C=C(/c1ccccc1)n1cnc2ccccc21)C(OCCCc1ccc(Cl)cc1)C(=O)O (racemic) [Example 1, (±)-4-(3Z-(1-Benzimidazolyl)-3-phenylpropenoyloxy)-2-(4-chlorophenylpropyloxy)-3,3-dimethylbutanoic acid] |  | inhibitors of the glucose-6-phosphatase system |
|  | CC(=O)Oc1ccccc1C=Cc1ccccc1N=C=S [2-iso-thiocyanato-2'-acetoxystilbene] | non-specific inhibitors of glucose-6-phosphatase |  |
|  | O=C(O)c1cc(SSc2ccc([N+](=O)[O-])c(C(=O)O)c2)ccc1[N+](=O)[O-] [5,5'-dithiobis-2-nitrobenzoic acid] | non-specific inhibitors of glucose-6-phosphatase |  |
|  | S=C=Nc1ccccc1C=Cc1ccccc1N=C=S [2,2'-diisothiocyanatostilbene] | non-specific inhibitors of glucose-6-phosphatase |  |
